Entries after “also recorded” stand apart in the source; their conditions may differ.
Tests used:
p-Akt and p-MAPK = test: Downstream p-Akt and p-MAPK signaling in mouse brain; assay type: in vivo, C57 BL/6J mice; settings: hippocampus; for downstream p-Akt and p-MAPK signalings: 1 mg/kg oral, 4 h; for downstream p-Akt activity: 2.5 mg/kg oral, 3 weeks
TrkB [1] = biological target: T1, TrkB (Mus musculus, UniProt P15209); test: TrkB activation in mouse brain after single oral administration; assay type: in vivo, C57 BL/6J mice; settings: 1 mg/kg oral; for TrkB activation in mouse brain: hippocampus
[2] = In vivo pharmacokinetic studies in mice
TrkB [3] = biological target: TrkB (Rattus norvegicus, UniProt Q63604); test: TrkB activation in primary cortical cultures; assay type: cell-based; settings: 500 nM, 15 min; for TrkB activation (agonistic activity): primary cortical cultures from E17 rat embryos, p-TrkB immunoblotting (Figure 2B); for TrkB and Akt activation in primary neurons: rat primary neurons, immunoblotting and p-Akt ELISA (Figure 4B)
TrkA receptor = TrkA receptor (Mus musculus, UniProt Q3UFB7); test: TrkA activation in mouse brain after chronic oral treatment; assay type: in vivo, mice; settings: 5 mg/kg oral, anti-p-TrkA 794
male C57BL/6J mice [4] = test: Locomotor activity assay; assay type: in vivo
HepG2 cells = test: Comet assay; assay type: cell-based, human; settings: 100 μM, 24 h
male C57BL/6J mice [5] = test: Forced swim test; assay type: in vivo; settings: for immobility in forced swim test: 5 mg/kg oral once a day for 21 days
TrkB [6] = biological target: T1, TrkB; test: TrkB activation in mouse brain after chronic oral treatment; assay type: in vivo, C57 BL/6J mice; settings: for TrkB phosphorylation in cortex and hippocampus: 5 mg/kg oral, vs vehicle; for TrkB phosphorylation in cortex and hippocampus / TrkB activation in brain tissues (anti-p-TrkB Y816 and Y706 immunoblotting): 3 weeks; for TrkB activation in brain tissues (anti-p-TrkB Y816 and Y706 immunoblotting) / TrkB phosphorylation in hippocampus (immunohistochemistry, anti-p-TrkB 816): 2.5 mg/kg oral; for TrkB activation in brain tissues (anti-p-TrkB Y816 and Y706 immunoblotting): after behavioral tests; for TrkB phosphorylation in hippocampus (immunohistochemistry, anti-p-TrkB 816): chronic, brain sections
P-Akt S473 = P-Akt S473 ELISA in drug-treated mouse brain; assay type: in vivo, C57 BL/6J mice; settings: 1 mg/kg oral, time course
male C57BL/6J mice [7] = test: Tail suspension test; assay type: in vivo; settings: 2.5 mg/kg oral once a day for 3 weeks
[8] = Reactive metabolite screening; assay type: in vitro ADME; settings: reactive metabolic screening
[9] = Human plasma protein binding; assay type: in vitro ADME; settings: 5 μM
hERG = hERG (Homo sapiens, UniProt Q12809); test: hERG inhibition assay; assay type: in vitro ADME
[10] = Preliminary in vivo metabolism study; settings: Supplemental Figure 2
[11] = 5 mg/kg oral for 21 days, tested at day 22
[12] = 2.5 mg/kg oral once a day for 3 weeks

T1 sequence (P15209 32-821): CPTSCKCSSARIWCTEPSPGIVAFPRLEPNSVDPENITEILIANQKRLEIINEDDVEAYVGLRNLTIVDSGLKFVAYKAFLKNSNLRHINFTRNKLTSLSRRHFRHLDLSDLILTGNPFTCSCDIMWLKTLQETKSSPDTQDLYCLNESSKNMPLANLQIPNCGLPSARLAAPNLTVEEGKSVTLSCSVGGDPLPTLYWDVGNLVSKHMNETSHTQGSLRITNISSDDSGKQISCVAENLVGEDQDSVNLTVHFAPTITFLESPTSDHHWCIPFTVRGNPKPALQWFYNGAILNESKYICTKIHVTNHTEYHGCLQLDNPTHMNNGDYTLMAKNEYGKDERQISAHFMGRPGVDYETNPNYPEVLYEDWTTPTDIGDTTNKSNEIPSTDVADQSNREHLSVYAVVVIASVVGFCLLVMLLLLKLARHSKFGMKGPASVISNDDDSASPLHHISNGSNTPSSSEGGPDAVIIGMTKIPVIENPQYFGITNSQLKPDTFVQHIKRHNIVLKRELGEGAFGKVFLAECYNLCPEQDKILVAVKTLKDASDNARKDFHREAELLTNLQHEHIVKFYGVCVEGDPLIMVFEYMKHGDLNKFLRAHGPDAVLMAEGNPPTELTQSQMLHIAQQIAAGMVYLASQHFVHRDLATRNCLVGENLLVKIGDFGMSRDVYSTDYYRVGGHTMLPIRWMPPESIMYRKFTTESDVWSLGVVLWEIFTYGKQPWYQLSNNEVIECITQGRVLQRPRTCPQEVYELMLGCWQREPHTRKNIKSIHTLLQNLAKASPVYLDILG
Sequence of TrkB (Rattus norvegicus, UniProt Q63604) (Q63604 32-821): as the sequence (P15209 32-821) above, with T3M, S9T, A10T, V32I, R63K, S84G, M153T, L185I, S394T, S770N counted along it
Sequence of hERG (Q12809 whole entry): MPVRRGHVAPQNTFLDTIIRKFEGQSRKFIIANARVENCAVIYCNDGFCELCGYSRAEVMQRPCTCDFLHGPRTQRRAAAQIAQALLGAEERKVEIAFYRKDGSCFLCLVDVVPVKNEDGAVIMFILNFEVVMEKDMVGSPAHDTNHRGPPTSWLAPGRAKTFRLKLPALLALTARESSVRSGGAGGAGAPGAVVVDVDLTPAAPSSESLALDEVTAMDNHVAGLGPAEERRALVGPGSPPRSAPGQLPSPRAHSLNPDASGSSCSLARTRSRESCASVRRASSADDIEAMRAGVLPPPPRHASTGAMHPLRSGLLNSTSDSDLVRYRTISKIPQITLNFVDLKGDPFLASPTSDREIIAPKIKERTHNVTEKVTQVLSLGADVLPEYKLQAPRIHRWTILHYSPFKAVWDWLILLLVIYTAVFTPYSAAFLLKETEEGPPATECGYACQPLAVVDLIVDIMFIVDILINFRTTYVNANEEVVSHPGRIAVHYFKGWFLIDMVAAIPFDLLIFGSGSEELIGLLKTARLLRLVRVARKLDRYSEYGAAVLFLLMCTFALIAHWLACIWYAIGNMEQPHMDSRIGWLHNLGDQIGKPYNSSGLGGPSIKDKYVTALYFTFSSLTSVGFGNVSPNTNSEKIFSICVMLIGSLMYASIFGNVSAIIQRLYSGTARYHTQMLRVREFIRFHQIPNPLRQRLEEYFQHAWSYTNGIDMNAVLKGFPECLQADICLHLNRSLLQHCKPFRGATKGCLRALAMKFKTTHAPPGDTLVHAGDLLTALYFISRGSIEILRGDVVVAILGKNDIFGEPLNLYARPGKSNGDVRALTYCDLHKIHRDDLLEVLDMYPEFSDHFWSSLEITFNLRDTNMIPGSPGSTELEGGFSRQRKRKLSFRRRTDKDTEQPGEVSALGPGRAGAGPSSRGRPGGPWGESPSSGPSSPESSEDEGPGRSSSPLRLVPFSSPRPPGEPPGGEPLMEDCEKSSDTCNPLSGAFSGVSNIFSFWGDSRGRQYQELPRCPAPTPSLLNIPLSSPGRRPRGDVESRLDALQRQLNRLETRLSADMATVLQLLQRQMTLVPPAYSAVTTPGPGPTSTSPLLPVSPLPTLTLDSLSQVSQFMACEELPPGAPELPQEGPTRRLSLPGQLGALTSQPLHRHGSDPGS
Sequence of TrkA receptor (Q3UFB7 34-799): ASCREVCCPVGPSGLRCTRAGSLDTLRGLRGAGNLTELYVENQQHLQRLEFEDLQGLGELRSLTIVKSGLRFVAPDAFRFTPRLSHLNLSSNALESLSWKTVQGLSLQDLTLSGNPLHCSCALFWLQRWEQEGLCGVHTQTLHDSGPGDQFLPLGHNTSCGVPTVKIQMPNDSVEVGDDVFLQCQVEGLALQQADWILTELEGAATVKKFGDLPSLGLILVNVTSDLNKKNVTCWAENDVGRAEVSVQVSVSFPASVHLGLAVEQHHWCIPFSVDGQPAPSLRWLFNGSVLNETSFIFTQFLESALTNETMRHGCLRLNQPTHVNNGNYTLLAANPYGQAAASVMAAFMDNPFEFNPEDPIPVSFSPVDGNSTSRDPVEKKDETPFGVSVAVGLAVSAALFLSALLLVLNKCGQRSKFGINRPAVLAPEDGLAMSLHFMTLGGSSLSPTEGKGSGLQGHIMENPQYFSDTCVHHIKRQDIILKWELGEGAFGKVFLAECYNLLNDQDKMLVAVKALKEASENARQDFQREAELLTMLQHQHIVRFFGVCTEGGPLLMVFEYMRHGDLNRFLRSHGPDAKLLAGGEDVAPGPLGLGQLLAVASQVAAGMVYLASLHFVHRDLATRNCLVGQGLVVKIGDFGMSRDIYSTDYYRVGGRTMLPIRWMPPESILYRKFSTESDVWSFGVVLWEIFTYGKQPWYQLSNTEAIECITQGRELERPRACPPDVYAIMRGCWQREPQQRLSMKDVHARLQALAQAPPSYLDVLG

SMILES: CN(C)c1ccc(-c2cc(=O)c3ccc(O)c(O)c3o2)cc1 [compound 24, 4′-dimethylamino-7,8-dihydroxyflavone]
- downstream p-Akt and p-MAPK signalings (p-Akt and p-MAPK): activated
- TrkB activation in mouse brain (TrkB [1]; 4 h): clearly activated the TrkB receptor; also recorded: strongest TrkB stimulatory effect
- Bioavailability ([2]; PO, 5 mg/kg): not measurable
- AUC(0-t) ([2]; mouse, plasma, iv, 1 mg/kg, AUClast): ~98.8 ng·h/mL
- half-life ([2]; mouse, plasma, iv, 1 mg/kg, T1/2, IV): ~9 min

SMILES: O=c1cc(-c2ccccc2)oc2c(O)c(O)cc(F)c12 [compound 33]
- TrkB activation (agonistic activity) (TrkB [3]): did not significantly affect 7,8-DHF’s TrkB agonistic activity

SMILES: CN(C)c1ccc(-c2cc(=O)c3ccc4nc[nH]c4c3o2)cc1 [compound 11, 8-(4′-(Dimethylamino)phenyl)chromeno[7,8-d]imidazol-6(1H)-one]
- TrkA activation in mouse brain (TrkA receptor): TrkB but not TrkA is activated
- locomotor activity (male C57BL/6J mice [4]; [11]): substantially augmented locomoter activity; also recorded: significantly increased the locomotor activity
- downstream p-Akt and p-MAPK signalings (p-Akt and p-MAPK): activated
- TrkB activation (agonistic activity) (TrkB [3]): stronger effect in triggering TrkB activation than the lead compound
- DNA lesions (Comet assay) (HepG2 cells): induced DNA lesions
- TrkB activation in mouse brain (TrkB [1]; 4 h): robustly activated TrkB; also recorded: strongest TrkB stimulatory effect
- time at which TrkB activation faded away (TrkB [1]; time course): 16 h
- time of peak TrkB activation in mouse brain (TrkB [1]; time course): 4 h
- immobility in forced swim test (male C57BL/6J mice [5]): significantly reduced the immobility
- TrkB phosphorylation in cortex and hippocampus (TrkB [6]): clearly escalated TrkB phosphorylation

SMILES: O=c1c(F)c(-c2cccc(O)c2)oc2c(O)c(O)ccc12 [compound 32]
- TrkA activation in mouse brain (TrkA receptor): TrkB but not TrkA is activated
- locomotor activity (male C57BL/6J mice [4]; [11]): but not 32 significantly increased the locomotor activity
- TrkB activation (agonistic activity) (TrkB [3]): did not significantly affect 7,8-DHF’s TrkB agonistic activity; also recorded: barely affects TrkB stimulatory activity
- time at which p-Akt returned to the baseline (P-Akt S473): 8 h
- time of peak p-Akt activation (ELISA) (P-Akt S473; 20 μg brain lysates): 1 h
- time of peak TrkB activation in mouse brain (TrkB [1]; time course): 1 to 2 h
- TrkB activation in mouse brain (time course comparison) (TrkB [1]; various time points): less effect on TrkB activation than compound 11
- immobility in forced swim test (male C57BL/6J mice [5]): significantly reduced the immobility
- TrkB phosphorylation in cortex and hippocampus (TrkB [6]): clearly escalated TrkB phosphorylation

SMILES: CN(C)c1ccc(-c2cc(=O)c3c(F)cc(O)c(O)c3o2)cc1 [compound 35]
- TrkB activation (agonistic activity) (TrkB [3]): did not significantly affect 7,8-DHF’s TrkB agonistic activity

SMILES: Cc1nc2ccc3c(=O)cc(-c4ccc(N5CCCC5)cc4)oc3c2[nH]1 [compound 13, 2-methyl-8-(4-(pyrrolidin-1-yl)phenyl)chromeno[7,8-d]imidazol-6(1H)-one]
- locomotor activity (male C57BL/6J mice [4]; [12]): neither compound 13 nor 23 altered the motion activity
- downstream p-Akt activity (p-Akt and p-MAPK): upregulated
- immobility in tail suspension test (male C57BL/6J mice [7]): significantly reducing the immobility
- adduct formation (Comment) [8]: quite stable in vitro; also recorded: No adduct detected
- TrkB and Akt activation in primary neurons (TrkB [3]): higher activity than compound 11 in triggering TrkB and Akt activation
- Binding classification [9]: High Binding
- TrkB activation in mouse brain (TrkB [1]; 2 h): triggers TrkB activation in mouse brain
- hERG inhibition (hERG): did not possess any concentration-dependent inhibition activity of hERG; also recorded: trifling
- TrkB activation in brain tissues (anti-p-TrkB Y816 and Y706 immunoblotting) (TrkB [6]): markedly activated TrkB
- TrkB phosphorylation in hippocampus (immunohistochemistry, anti-p-TrkB 816) (TrkB [6]): elevated TrkB phosphorylation in hippocampus
- ACINF ([2]; PO, 10 mg/kg): 1293 ng·min/mL

SMILES: O=c1cc(-c2ccc(F)cc2)oc2c(O)c(O)ccc12 [compound 30]
- TrkB activation (agonistic activity) (TrkB [3]): inhibited its activity

SMILES: O=c1cc(-c2ccccc2)oc2c(O)c(O)ccc12 [7,8-DHF, 7,8-dihydroxyflavone]
- in vivo metabolic pathways [10]: subjected to oxidation, glucuronidation, sulfation and methylation

SMILES: O=c1c(F)c(-c2ccccc2)oc2c(O)c(O)ccc12 [compound 34]
- TrkB activation (agonistic activity) (TrkB [3]): did not significantly affect 7,8-DHF’s TrkB agonistic activity

SMILES: O=c1cc(-c2ccc(F)cc2)[nH]c2c(O)c(O)ccc12 [compound 25]
- TrkB activation (agonistic activity) (TrkB [3]): diminished agonistic activity

SMILES: O=c1cc(-c2ccccc2)[nH]c2c(O)c(O)ccc12 [compound 26]
- TrkB activation (agonistic activity) (TrkB [3]): diminished agonistic activity

SMILES: CN(C)c1cccc(-c2cc(=O)c3ccc(O)c(O)c3o2)c1 [compound 28, 3′-dimethylamino-7,8-DHF]
- TrkB activation (agonistic activity) (TrkB [3]): comparable activity as the lead compound 24

SMILES: O=c1cc(-c2ccc(N3CCOCC3)cc2)oc2c(O)c(O)ccc12 [compound 29, 4′-morpholino-7,8-DHF]
- TrkB activation (agonistic activity) (TrkB [3]): comparable activity as the lead compound 24

SMILES: O=c1cc(-c2ccc(N3CCCC3)cc2)oc2c1ccc1cc[nH]c12 [compound 23, 2-(4-(Pyrrolidin-1-yl)phenyl)pyrano[3,2-g]indol-4(9H)-one]
- locomotor activity (male C57BL/6J mice [4]; [12]): neither compound 13 nor 23 altered the motion activity
- downstream p-Akt activity (p-Akt and p-MAPK): upregulated
- immobility in tail suspension test (male C57BL/6J mice [7]): lacked efficacy
- adduct formation (Comment) [8]: formed numerous adducts
- TrkB and Akt activation in primary neurons (TrkB [3]): higher activity than compound 11 in triggering TrkB and Akt activation
- Binding classification [9]: High Binding
- reduction of immobility in FST compared to vehicle control (male C57BL/6J mice [5]; 2.5 mg/kg oral gavage once a day for 3 weeks): had no effect
- TrkB activation in brain tissues (anti-p-TrkB Y816 and Y706 immunoblotting) (TrkB [6]): markedly activated TrkB
- TrkB phosphorylation in hippocampus (immunohistochemistry, anti-p-TrkB 816) (TrkB [6]): elevated TrkB phosphorylation in hippocampus

Reference: article PMC3491656 (Journal of medicinal chemistry, 2012)
